# ChEMBL document CHEMBL3885861, “Open TG-GATES”
# Species: Rattus norvegicus
# Assay: Open TG-GATES - Regimen: Single
# Format: toxicity, organism-based, Sprague-Dawley
# Set-up: regimen Single, gender Male, age 6 weeks
# Details: in vivo, po, 25 mg/kg, route gavage, dose level Low; for APTT / Bas / Eos / Fbg / Hb / Ht / Lym / MCH / MCHC / MCV / Mono / Neu / PT / Plat / RBC / Ret / WBC: tissue Blood; for KIDNEY_L / KIDNEY_R / KIDNEY_TOTAL: tissue Kidney; for LIVER: tissue Liver; for A/G / ALP / ALT / AST / BUN / CRE / Ca / Cl / DBIL / GLC / IP / K / LDH / Na / PL / RALB / TBIL / TC / TG / TP / gamma-GTP: tissue Plasma
smiles,measurement,setting,value
CCSCC[C@H](N)C(=O)O [ETHIONINE],TERMINAL_BW,3 h,217.8 g
same,APTT,3 h,19.1 s
same,Bas,3 h,0%
same,Eos,3 h,1.2%
same,Fbg,3 h,211.4 mg/dL
same,Hb,3 h,13.1 g/dL
same,Ht,3 h,38.9%
same,Lym,3 h,83.4%
same,MCH,3 h,21.1 pg
same,MCHC,3 h,33.5%
same,MCV,3 h,62.9 fL
same,Mono,3 h,2.4%
same,Neu,3 h,12.2%
same,PT,3 h,12.4 s
same,Plat,3 h,120.2 x10_4/uL
same,RBC,3 h,619.2 x10_4/ul
same,Ret,3 h,6.9%
same,WBC,3 h,89.8 x10_2/uL
same,KIDNEY_L,3 h,0.9 g
same,KIDNEY_R,3 h,0.9 g
same,KIDNEY_TOTAL,3 h,1.9 g
same,LIVER,3 h,10.1 g
same,A/G,3 h,1.6
same,ALP,3 h,855.8 IU/L
same,ALT,3 h,33 IU/L
same,AST,3 h,66 IU/L
same,BUN,3 h,11.2 mg/dL
same,CRE,3 h,0.4 mg/dL
same,Ca,3 h,10.5 mg/dL
same,Cl,3 h,101.8 meq/L
same,DBIL,3 h,0.056 mg/dL
same,GLC,3 h,202.4 mg/dL
same,IP,3 h,9.7 mg/dL
same,K,3 h,4 meq/L
same,LDH,3 h,212.6 IU/L
same,Na,3 h,140.4 meq/L
same,PL,3 h,138.4 mg/dL
same,RALB,3 h,3.2 g/dL
same,TBIL,3 h,0.1 mg/dL
same,TC,3 h,77.8 mg/dL
same,TG,3 h,61.2 mg/dL
same,TP,3 h,5.2 g/dL
same,gamma-GTP,3 h,1 IU/L
same,TERMINAL_BW,6 h,214.9 g
same,APTT,6 h,19.4 s
same,Bas,6 h,0%
same,Eos,6 h,1%
same,Fbg,6 h,210.6 mg/dL
same,Hb,6 h,13.3 g/dL
same,Ht,6 h,39.1%
same,Lym,6 h,82%
same,MCH,6 h,21.4 pg
same,MCHC,6 h,33.9%
same,MCV,6 h,62.9 fL
same,Mono,6 h,2.4%
same,Neu,6 h,14%
same,PT,6 h,12.7 s
same,Plat,6 h,118.7 x10_4/uL
same,RBC,6 h,620.4 x10_4/ul
same,Ret,6 h,6.7%
same,WBC,6 h,82.3 x10_2/uL
same,KIDNEY_L,6 h,1 g
same,KIDNEY_R,6 h,1 g
same,KIDNEY_TOTAL,6 h,2 g
same,LIVER,6 h,9.3 g
same,A/G,6 h,1.6
same,ALP,6 h,885.2 IU/L
same,ALT,6 h,31.4 IU/L
same,AST,6 h,63.8 IU/L
same,BUN,6 h,9.4 mg/dL
same,CRE,6 h,0.4 mg/dL
same,Ca,6 h,10.2 mg/dL
same,Cl,6 h,102.8 meq/L
same,DBIL,6 h,0.058 mg/dL
same,GLC,6 h,191.2 mg/dL
same,IP,6 h,9.5 mg/dL
same,K,6 h,3.8 meq/L
same,LDH,6 h,224.2 IU/L
same,Na,6 h,139.6 meq/L
same,PL,6 h,126.8 mg/dL
same,RALB,6 h,3.2 g/dL
same,TBIL,6 h,0.1 mg/dL
same,TC,6 h,66.4 mg/dL
same,TG,6 h,52.6 mg/dL
same,TP,6 h,5.2 g/dL
same,gamma-GTP,6 h,1.6 IU/L
same,TERMINAL_BW,9 h,212.9 g
same,APTT,9 h,18.9 s
same,Bas,9 h,0%
same,Eos,9 h,1%
same,Fbg,9 h,228.2 mg/dL
same,Hb,9 h,13.4 g/dL
same,Ht,9 h,39.3%
same,Lym,9 h,71%
same,MCH,9 h,21.3 pg
same,MCHC,9 h,34%
same,MCV,9 h,62.6 fL
same,Mono,9 h,2.2%
same,Neu,9 h,25.4%
same,PT,9 h,12.6 s
same,Plat,9 h,125.9 x10_4/uL
same,RBC,9 h,629.2 x10_4/ul
same,Ret,9 h,6.8%
same,WBC,9 h,95.5 x10_2/uL
same,KIDNEY_L,9 h,0.9 g
same,KIDNEY_R,9 h,0.9 g
same,KIDNEY_TOTAL,9 h,1.8 g
same,LIVER,9 h,9 g
same,A/G,9 h,1.6
same,ALP,9 h,842.8 IU/L
same,ALT,9 h,33.2 IU/L
same,AST,9 h,69.6 IU/L
same,BUN,9 h,11.2 mg/dL
same,CRE,9 h,0.3 mg/dL
same,Ca,9 h,10.5 mg/dL
same,Cl,9 h,101.8 meq/L
same,DBIL,9 h,0.074 mg/dL
same,GLC,9 h,197 mg/dL
same,IP,9 h,9.6 mg/dL
same,K,9 h,3.7 meq/L
same,LDH,9 h,200.6 IU/L
same,Na,9 h,141 meq/L
same,PL,9 h,123.4 mg/dL
same,RALB,9 h,3.4 g/dL
same,TBIL,9 h,0.1 mg/dL
same,TC,9 h,63.6 mg/dL
same,TG,9 h,75.8 mg/dL
same,TP,9 h,5.6 g/dL
same,gamma-GTP,9 h,0.8 IU/L
same,TERMINAL_BW,24 h,231.8 g
same,APTT,24 h,20 s
same,Bas,24 h,0%
same,Eos,24 h,1%
same,Fbg,24 h,234 mg/dL
same,Hb,24 h,13.3 g/dL
same,Ht,24 h,38.9%
same,Lym,24 h,80%
same,MCH,24 h,21.7 pg
same,MCHC,24 h,34.2%
same,MCV,24 h,63.6 fL
same,Mono,24 h,3%
same,Neu,24 h,15.4%
same,PT,24 h,12.7 s
same,Plat,24 h,126.9 x10_4/uL
same,RBC,24 h,612 x10_4/ul
same,Ret,24 h,6.8%
same,WBC,24 h,103.2 x10_2/uL
same,KIDNEY_L,24 h,1 g
same,KIDNEY_R,24 h,1 g
same,KIDNEY_TOTAL,24 h,2 g
same,LIVER,24 h,11.1 g
same,A/G,24 h,1.6
same,ALP,24 h,978 IU/L
same,ALT,24 h,34.2 IU/L
same,AST,24 h,68 IU/L
same,BUN,24 h,14.6 mg/dL
same,CRE,24 h,0.4 mg/dL
same,Ca,24 h,10.6 mg/dL
same,Cl,24 h,102.4 meq/L
same,DBIL,24 h,0.098 mg/dL
same,GLC,24 h,209 mg/dL
same,IP,24 h,8.3 mg/dL
same,K,24 h,4 meq/L
same,LDH,24 h,230.4 IU/L
same,Na,24 h,140 meq/L
same,PL,24 h,142.8 mg/dL
same,RALB,24 h,3.5 g/dL
same,TBIL,24 h,0.1 mg/dL
same,TC,24 h,67.8 mg/dL
same,TG,24 h,122.6 mg/dL
same,TP,24 h,5.6 g/dL
same,gamma-GTP,24 h,1.4 IU/L
